Experiment [1] concerns Prolyl 4-hydroxylase (Gallus gallus). Nature of the experiment: Inhibition of prolyl 4-hydroxylase by chromatographic determination of [14C]-succinic acid on ion-exchange minicolumna at 50 ug/mL.
Experiment [2] has the same test system. Nature of the experiment: Inhibition of prolyl 4-hydroxylase by chromatographic determination of [14C]-succinic acid on ion-exchange minicolumna at 100 ug/mL.

The values below come from ChEMBL document CHEMBL1126923, “Novel inhibitors of prolyl 4-hydroxylase. 5. The intriguing structure-activity relationships seen with 2,2'-bipyridine and its 5,5'-dicarboxylic acid derivatives” (J Med Chem, 1993).

The structures appear in SMILES notation.

In the case of `CCOc1ccc(NC(=O)c2ccc(-c3ccccn3)nc2)cc1`, the inhibition in experiment [1] came to 13%. In experiment [2], `CCOc1ccc(NC(=O)c2ccc(-c3ccc(C(=O)Nc4ccc(OCC)cc4)cn3)nc2)cc1` showed an inhibition of 13%.

By inhibition is commonly meant how much of the control response was suppressed. A low value points to little suppression.
